According to patent US9771336B2, “Tetrazole based corrosion inhibitors” (Ecolab USA Inc., priority 2013, dated 2017):
Read-outs that look alike come from different tables or passages of the source.

How the values were obtained:
[1] = Copper corrosion rate with and without bleach in a cooling water environment
[2] = Solubility (turbidity) of 2% solutions at various pH; format: physicochemical; conditions: 2% solution in RO water
[3] = Pimephales promelas 96-Hour Definitive Toxicity Test; format: in vivo; conditions: Pimephales promelas, in vivo, other: waterborne exposure in test solution; composition of BDTZ
Method: (§1) A composition of the invention including a BDTZ tetrazole component was evaluated using the Pimephales promelas 96-Hour Definitive Toxicity Test. Pimephales promelas used to initiate this test were obtained from in-house cultures and were 1 to 14 days old at test initiation. Test organisms were maintained in 100 percent control water (reconstituted moderately hard water) prior to test initiation. The 96-Hour Definitive Test was conducted using 300 to 500 milliliter (mL) disposable polypropylene containers containing 250 ml of control water or appropriate test solution. Ten test organisms were randomly introduced into each test chamber with two replicate chambers per treatment. Each Pimephales promelas test chamber was fed 0.1 mL of a concentrated suspension of less than 24-hour old live brine shrimp nauplii (Artemia sp.) several hours prior to the 48-hour testing period.
(§2) At the 48-hour testing period, test solutions were renewed by replacing approximately 90 percent of the old solution with fresh control water or appropriate test solution. Prior to renewal of test solutions, uneaten and dead brine shrimp, along with other debris, were removed from the bottom of the test chambers. Organism survival was determined daily by enumerating live Pimephales promelas in each test chamber. Survival was defined as any body movement after gentle prodding.
(§3) The test was conducted at a temperature of 20±1° C. under fluorescent lighting with a photoperiod of 16 hours light and 8 hours dark. Water quality measurements were performed on all control and test solutions prior to test initiation and on selected treatments daily thereafter.
(§4) Following termination of the 96-Hour Definitive Test, No Observed Effect Concentration (NOEC) and a 96-hour LC50 with corresponding 95 percent confidence interval were calculated, where possible. The NOEC value was determined using the statistically appropriate method. The LC50 value estimate was determined by using one of the following statistical methods: graphical, Spearman-Karber, Trimmed Spearman-Karber, or Probit. The method selected for reporting test results was determined by the characteristics of the data; that is, the presence or absence of 0 and 100 percent mortality and the number of concentrations in which mortalities between 0 and 100 percent occurred. All statistical analyses were performed using the CETIS™ Version 1.8.5.4 software program.
(§5) The reference toxicant, sodium chloride, was used to monitor the sensitivity of the test organisms and the precision of the testing procedure. Acute reference toxicant tests are performed at least monthly and the resulting LC50 values are plotted to determine if the results are within prescribed limits.

Pimephales promelas = assay: as above; format: in vivo; conditions: 96-hour test
Method: as §1, §2, §3, §4, §5

[4] = Mild steel corrosion rate (interaction with Cu2+); conditions: FIG. 12; compared with no HDTZ
Text: Tetrazoles disclosed herein have a positive effect on mild steel corrosion. […] The proposed mechanism of action is suspected to be indirect: the likely interpretation is that HDTZ inactivates Cu^2+ in solution preventing the occurrence of galvanic cells on the coupon surface (lower corrosion rate), which could grow with time (stabilization of the corrosion rate).

[5] = 3 ppm inhibitor, synthetic cooling water, 38° C., three hours
[6] = average copper corrosion rate, inhibitor concentration 5 ppm, with bleach
[7] = average copper corrosion rate, inhibitor concentration 5 ppm, without bleach

For `Cc1cc2nn[nH]c2cc1Cl` [CITT, 5-methyl-6-chloro-1H-benzotriazole, reference compound], the “Corrosion Rate (mpy) with Bleach (1 FRC)” value [1, 6] was 0.0057 mpy and the “Corrosion Rate (mpy) without Bleach” value [1, 7] was 0.0028 mpy.
With `C(CCCc1nnn[nH]1)CCCc1nnn[nH]1` [HeDTZ, 1,7-di(1H-tetrazol-5-yl)heptane] the “Corrosion Rate (mpy) with Bleach (1 FRC)” value [1, 6] was 0.027 mpy, the “Corrosion Rate (mpy) without Bleach” value [1, 7] was 0.009 mpy and the melting point was 144.19 °C.
For `CCCCc1ccc2[nH]nnc2c1` [BBT, 5-butyl-1H-benzotriazole, reference compound], the “Corrosion Rate (mpy) with Bleach (1 FRC)” value [1, 6] was 0.0189 mpy and the “Corrosion Rate (mpy) without Bleach” value [1, 7] was 0.0024 mpy.
In the case of `C(CCc1nnn[nH]1)Cc1nnn[nH]1` [BDTZ, 1,4-di(1H-tetrazol-5-yl)butane], the “pH above which the solution remained clear” value ([2]; turbidity meter) is reported as over 5.6, the LC50 at 96 h [3] is reported as over 10000 µg/mL and the “Survival (%)” value (Pimephales promelas; composition of BDTZ, 625 mg/L as nominal) is reported as 100%. For the same molecule, the “Survival (%)” value (Pimephales promelas; composition of BDTZ, 1,250 mg/L as nominal) was 100%, the “Survival (%)” value (Pimephales promelas; composition of BDTZ, 2,500 mg/L as nominal) was 100% and the “Survival (%)” value (Pimephales promelas; composition of BDTZ, 5,000 mg/L as nominal) was 100%. The “Survival (%)” value (Pimephales promelas; composition of BDTZ, 10,000 mg/L as nominal) was 100%, the NOEC (Pimephales promelas; composition of BDTZ) was 10,000 mg/L and the “Corrosion Rate (mpy) with Bleach (1 FRC)” value [1, 6] was 0.0841 mpy. The “Corrosion Rate (mpy) without Bleach” value [1, 7] was 0.0088 mpy.
In the case of `C(CCCc1nnn[nH]1)CCc1nnn[nH]1` [HDTZ, 1,6-di(1H-tetrazol-5-yl)hexane], the “Corrosion Rate (mpy) with Bleach (1 FRC)” value [1, 6] is reported as 0.0204 mpy, the “Corrosion Rate (mpy) without Bleach” value [1, 7] is reported as 0.005 mpy and the “effect on mild steel corrosion rate” value [4] is reported as “stabilize the corrosion rate”. The melting point was 183.75 °C.
With `C(CCCCc1nnn[nH]1)CCCc1nnn[nH]1` [ODTZ, 1,8-di(1H-tetrazol-5-yl)octane] the “Corrosion Rate (mpy) with Bleach (1 FRC)” value [1] was 0.032 mpy, the “Corrosion Rate (mpy) without Bleach” value [1] was 0.026 mpy and the “% loss of inhibitor” value ([5]; 1 ppm ActiBrom) was 0.0%. For the same molecule, the “% loss of inhibitor” value ([5]; 1 ppm Bleach) was 2.6%, the “% loss of inhibitor” value ([5]; 1 ppm STABREX) was 1.6% and the “% loss of inhibitor” value ([5]; 5 ppm ActiBrom) was 1.3%. For the same molecule, the “% loss of inhibitor” value ([5]; 5 ppm Bleach) was 2.6% and the “% loss of inhibitor” value ([5]; 5 ppm STABREX) was 2.6%.
For `C(CCc1nnn[nH]1)CCc1nnn[nH]1` [PeDTZ, 1,5-di(1H-tetrazol-5-yl)pentane], the “Corrosion Rate (mpy) with Bleach (1 FRC)” value [1] was 0.145 mpy and the “Corrosion Rate (mpy) without Bleach” value [1] was 0.0012 mpy.
In the case of `Cc1ccc2[nH]nnc2c1` [TT, 5-methyl-1H-benzotriazole, reference compound], the “pH above which soluble” value [2] is reported as “above 11.5”, the “pH to get a clear solution” value [2] is reported as 12.0 and the “Corrosion Rate (mpy) with Bleach (1 FRC)” value [1, 6] is reported as 0.0995 mpy. The “Corrosion Rate (mpy) without Bleach” value [1, 7] was 0.0214 mpy.
With `c1ccc2[nH]nnc2c1` [BZT, 1H-benzotriazole, reference compound] the “Corrosion Rate (mpy) with Bleach (1 FRC)” value [1, 6] was 0.1386 mpy and the “Corrosion Rate (mpy) without Bleach” value [1, 7] was 0.0032 mpy.
With “hydrogenated tolyltriazole [HTT, reference compound]” the “Corrosion Rate (mpy) with Bleach (1 FRC)” value [1, 6] was 0.0187 mpy and the “Corrosion Rate (mpy) without Bleach” value [1, 7] was 0.0051 mpy.
